Key:
[1] = target: T1, human mGlu2 receptor (Homo sapiens, UniProt Q14416); experiment: [35S]GTPγS binding assay, hmGluR2 PAM; format: biochemical; details: in presence of EC20 glutamate; for GTPγS - hmGluR2 PAM Emax / Emax: maximal % effect relative to the control glutamate response; for EC50: membranes from CHO cells with human mGlu2 receptor, -log EC50 in M, read-out: GTPγS - hmGluR2 PAM pEC50 (converted)
T1 construct: expressed in transfected cells; host or cells: CHO cells (membrane preparation)
T1 sequence (Q14416 19-872): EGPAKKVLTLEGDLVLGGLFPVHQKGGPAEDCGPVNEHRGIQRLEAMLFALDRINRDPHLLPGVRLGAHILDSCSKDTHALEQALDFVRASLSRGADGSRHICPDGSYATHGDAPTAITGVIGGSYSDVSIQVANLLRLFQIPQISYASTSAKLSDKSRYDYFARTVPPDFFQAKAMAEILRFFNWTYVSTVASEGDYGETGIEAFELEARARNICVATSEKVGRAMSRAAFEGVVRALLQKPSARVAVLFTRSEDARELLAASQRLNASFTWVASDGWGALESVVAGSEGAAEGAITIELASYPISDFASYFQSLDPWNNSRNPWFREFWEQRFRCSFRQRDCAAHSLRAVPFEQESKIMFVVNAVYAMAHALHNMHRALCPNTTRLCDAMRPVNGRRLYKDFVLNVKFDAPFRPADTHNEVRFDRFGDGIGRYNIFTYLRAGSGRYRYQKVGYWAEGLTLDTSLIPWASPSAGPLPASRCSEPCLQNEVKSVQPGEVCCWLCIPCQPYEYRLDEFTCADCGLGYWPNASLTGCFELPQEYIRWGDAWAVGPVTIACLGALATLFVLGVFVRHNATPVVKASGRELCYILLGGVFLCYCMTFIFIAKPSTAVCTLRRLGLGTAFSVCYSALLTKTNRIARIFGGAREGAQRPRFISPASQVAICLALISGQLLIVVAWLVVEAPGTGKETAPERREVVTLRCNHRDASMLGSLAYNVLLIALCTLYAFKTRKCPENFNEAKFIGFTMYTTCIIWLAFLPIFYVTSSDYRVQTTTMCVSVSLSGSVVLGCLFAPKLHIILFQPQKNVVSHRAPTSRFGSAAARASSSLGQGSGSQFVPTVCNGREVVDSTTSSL
Text: The compounds provided in the present invention are positive allosteric modulators of mGluR2. These compounds appear to potentiate glutamate responses by binding to an allosteric site other than the glutamate binding site. The response of mGluR2 to a concentration of glutamate is increased when compounds of Formula (I) are present. Compounds of Formula (I) are expected to have their effect substantially at mGluR2 by virtue of their ability to enhance the function of the receptor. The effects of positive allosteric modulators tested at mGluR2 using the [^35S]GTPγS binding assay method described below and which is suitable for the identification of such compounds, and more particularly the compounds according to Formula (I), are shown in Table 8.
[^35S]GTPγS Binding Assay
The [^35S]GTPγS binding assay is a functional membrane-based assay used to study G-protein coupled receptor (GPCR) function whereby incorporation of a non-hydrolysable form of GTP, [^35S]GTPγS (guanosine 5′-triphosphate, labelled with […] ^35S), is measured. The G-protein α subunit catalyzes the exchange of guanosine 5′-diphosphate (GDP) by guanosine triphosphate (GTP) and on activation of the GPCR by an agonist, [^35S]GTPγS, becomes incorporated and cannot be cleaved to continue the exchange cycle (Harper (1998) Current Protocols in Pharmacology 2.6.1-10, John Wiley & Sons, Inc.). […] Here we describe the use of the [^35S]GTPγS binding assay using membranes from cells transfected with the human mGlu2 receptor and adapted from Schaffhauser et al. (Molecular Pharmacology, 2003, […]) for the detection of the positive allosteric modulation (PAM) properties of the compounds of this invention.
CHO-cells were cultured to pre-confluence and stimulated with 5 mM butyrate for 24 h. Cells were then collected by scraping in PBS and cell suspension was centrifuged (10 min at 4000 RPM in benchtop centrifuge). Supernatant was discarded and pellet gently resuspended in 50 mM Tris-HCl, pH 7.4 by mixing with a vortex and pipetting up and down. The suspension was centrifuged at 16,000 RPM (Sorvall RC-5C plus rotor SS-34) for 10 minutes and the supernatant discarded. The pellet was homogenized in 5 mM Tris-HCl, pH 7.4 using an ultra-turrax homogenizer and centrifuged again (18,000 RPM, 20 min, 4° C.). The final pellet was resuspended in 50 mM Tris-HCl, pH 7.4 and stored at −80° C. in appropriate aliquots before use. Protein concentration was determined by the Bradford method (Bio-Rad, USA) with bovine serum albumin as standard.
Measurement of mGluR2 positive allosteric modulatory activity of test compounds was performed as follows. Test compounds and glutamate were diluted in assay buffer containing 10 mM HEPES acid, 10 mM HEPES salt, pH 7.4, 100 mM NaCl, 3 mM MgCl2 and 10 μM GDP. Human mGlu2 receptor-containing membranes were thawed on ice and diluted in assay buffer supplemented with 14 μg/ml saponin. Membranes were pre-incubated with compound alone or together with a predefined (˜EC20) concentration of glutamate (PAM assay) for 30 min at 30° C. After addition of [^35S]GTPγS (f.c. 0.1 nM), assay mixtures were shaken briefly and further incubated to allow [^35S]GTPγS incorporation on activation (30 minutes, 30° C.). Final assay mixtures contained 7 μg of membrane protein in 10 mM HEPES acid, 10 mM HEPES salt, pH 7.4, 100 mM NaCl, 3 mM MgCl2, 10 μM GDP and 2 μg/ml saponin. Total reaction volume was 200 μl. Reactions were terminated by rapid filtration through Unifilter-96 GF/B plates (Perkin Elmer, Massachusetts, USA) using a 96-well filtermate universal harvester. Filters were washed 6 times with ice-cold 10 mM NaH2PO4/10 mM Na2HPO4, pH 7.4. Filters were then air-dried, and 40 μl of liquid scintillation cocktail (Microscint-O) was added to each well. Membrane-bound radioactivity was counted in a Microplate Scintillation and Luminescence Counter from Perkin Elmer. […]

[2] = tested on: 6 Hz (32 mA, 3 s, corneal) limbic seizure in mice; experiment: Anticonvulsant studies - 6 Hz test in mice; format: in vivo; details: Mus musculus, Score ≤ 2 (protected), 32 mA for 3 s
Procedure: Anticonvulsant Studies—6 Hz Test in Mice
At a predefined interval after drug treatment (standard: 0.5 h). individual mice were challenged with sufficient current (32 mA for 3 s; delivered through corneal electrodes) to elicit a limbic seizure. The manifestations of the “psychomotor” seizure were first described by Toman (Toman, J. E. P., 1951, “Neuropharmacologic considerations in psychic seizures” Neurology, 1, 444-460; Toman, J. E. P., Evertett, G. M., Richards, R. K., 1952, “The search for new drugs against epilepsy” Tex. Rep. Biol. Med. 10, 96-104). […] This may be characterized by immobility, or a lack of awareness regarding its environment as it goes directly into behaviours 2 and 3 (forepaw clonus or facial automatisms). The stun posture is most often upright, but the mouse may also fall on its side during a seizure; the fore limbs are often crossed and the hind limbs are spread wide apart. The “stunning” may occasionally be preceded by a few seconds of running with a rolling gait. 2) Forepaw clonus or automatism: usually resembles the mouse repeatedly raising its forepaw and then stomping it onto the ground. This is generally repeated several times, but must be repeated at least twice to be considered present. 3) Facial automatism: in the mouse best resembles jaw chomping or air biting; this also must occur at least twice to be considered present. 4) Elevated or Straub tail, which must be elevated to greater than a 45 degree angle to be considered present. The duration of the seizure varies from 5 to 75 s; at the end of the seizure, the animal rather suddenly resumes normal locomotion and exploratory behaviour. Each of the four above mentioned behaviours was scored as either absent (0) or present (1).

[3] = tested on: major depressive disorder with anxiety symptoms; details: adjunctive administration; adults with major depressive disorder with anxiety symptoms; cited from earlier work
[4] = tested on: smoking cessation-induced deficits; details: versus placebo; cited from earlier work
[5] = tested on: S-ketamine-induced negative symptoms; details: healthy volunteers and patients with predominant negative symptoms of schizophrenia; cited from earlier work

CCOc1nc(N2CCC(c3ccn4c(CC5CC5)nnc4c3C(F)(F)F)C2)ncc1Cl (single isomer, unassigned) [Co. No. 1a, 7-[(3*R)-1-(5-chloro-4-ethoxy-pyrimidin-2-yl)pyrrolidin-3-yl]-3-(cyclopropylmethyl)-8-(trifluoromethyl)-[1,2,4]triazolo[4,3-a]pyridine]
GTPγS - hmGluR2 PAM Emax [1]: 148.44% | EC50 [1]: 214 nM | melting point: 167.64 °C

CCOc1nc(N2CCC(c3ccn4c(CC5CC5)nnc4c3C(F)(F)F)C2)ncc1Cl (single isomer, unassigned) [Co. No. 1b, 7-[(3*S)-1-(5-chloro-4-ethoxy-pyrimidin-2-yl)pyrrolidin-3-yl]-3-(cyclopropylmethyl)-8-(trifluoromethyl)-[1,2,4]triazolo[4,3-a]pyridine]
GTPγS - hmGluR2 PAM Emax [1]: 277.87% | EC50 [1]: 3.8 nM | ED50 ([2]; route PO): 20 mg/kg | ED50 ([2]; route SC): 3.79 mg/kg | melting point: 168.29 °C

CCOCc1nnc2c(C(F)(F)F)c(C3CCN(c4ncc(Cl)c(OCC)n4)C3)ccn12 (single isomer, unassigned) [Co. No. 2a, 7-[(3*R)-1-(5-chloro-4-ethoxy-pyrimidin-2-yl)pyrrolidin-3-yl]-3-(ethoxymethyl)-8-(trifluoromethyl)-[1,2,4]triazolo[4,3-a]pyridine]
GTPγS - hmGluR2 PAM Emax ([1]; listed as 2a): 226.905% | EC50 [1]: 2090 nM

CCOCc1nnc2c(C(F)(F)F)c(C3CCN(c4ncc(Cl)c(OCC)n4)C3)ccn12 (single isomer, unassigned) [Co. No. 2b, 7-[(3*S)-1-(5-chloro-4-ethoxy-pyrimidin-2-yl)pyrrolidin-3-yl]-3-(ethoxymethyl)-8-(trifluoromethyl)-[1,2,4]triazolo[4,3-a]pyridine]
GTPγS - hmGluR2 PAM Emax ([1]; listed as 2b): 295.62% | EC50 [1]: 9.77 nM | ED50 ([2]; route PO): 20 mg/kg

CCOc1nc(N2CCC(c3ccn4c(CC5CC5)nnc4c3C(F)(F)F)C2)ncc1Cl (stereo not shown) [Co. No. 1, 7-[1-(5-chloro-4-ethoxy-pyrimidin-2-yl)pyrrolidin-3-yl]-3-(cyclopropylmethyl)-8-(trifluoromethyl)-[1,2,4]triazolo[4,3-a]pyridine]
Emax [1]: 234% | EC50 [1]: 5.89 nM

CCOCc1nnc2c(C(F)(F)F)c(C3CCN(c4ncc(Cl)c(OCC)n4)C3)ccn12 (stereo not shown) [Co. No. 2, 7-[1-(5-chloro-4-ethoxy-pyrimidin-2-yl)pyrrolidin-3-yl]-3-(ethoxymethyl)-8-(trifluoromethyl)-[1,2,4]triazolo[4,3-a]pyridine]
Emax [1]: 345% | EC50 [1]: 17 nM | melting point: 153.86 °C

CCCCn1ccc(N2CCC(c3ccccc3)CC2)c(Cl)c1=O [JNJ-40411813/ADX71149]
efficacy on several secondary outcome measures of both depression and anxiety [3]: showed efficacy signals | efficacy on the primary outcome measure [3]: no efficacy signal was detected | effect on craving and smoking cessation-induced deficits in attention and episodic memory [4]: reduce craving and improve smoking cessation-induced deficits in attention and episodic memory | efficacy in S-ketamine-induced negative symptoms [5]: showed an efficacy signal

— patent US10138237B2, “1,2,4-triazolo[4,3-a]pyridine compounds and their use as positive allosteric modulators of mGluR2 receptors” (Janssen Pharmaceutica NV, priority 2014, dated 2018)
